Source: patent EP4722203A1, “3,4-DIHYDROPHTHALAZIN-1(2H)-ONE DERIVATIVE, AND PREPARATION METHOD THEREFOR AND USE THEREOF” (Academy of Military Medical Sciences, priority 2023, dated 2024)

Key:
NCI-H929 cells = assay: Antiproliferative activity, CCK-8 assay; assay type: cell-based; conditions: Homo sapiens, 144 hours incubation, CCK-8, absorbance at 450 nm, read-out: IC50 (µM) H-929
Method: (§1) The cell models used in this example were human hematologic tumor cells, including NCI-H929, RPMI-8226, MV-4-11, U937 and WSU-DLCL-2. Some of the compounds of the present invention were selected to determine their inhibitory activity against the proliferation of NCI-H929, RPMI-8226, MV-4-11, U937, and WSU-DLCL-2 cells.
(§2) • ① The selected compounds were dissolved in DMSO to prepare 10 mM stock solutions. Compounds used within three months should be stored at room temperature in a desiccator; others could be stored at -20°C for long-term storage. • ② The above stock solutions and the positive reference compound pomalidomide were diluted with DMSO. Their initial concentrations were 10 µM. In the experiments of NCI-H929 and RPMI-8226 cells, 3-fold serial dilution with 11 concentration points was performed, with the lowest concentration of 0.00047 µM. The resulting solutions were shaken on a shaker for 5 minutes.
(§3) • ① The NCI-H929, RPMI-8226, MV-4-11, U937, and WSU-DLCL-2 cells in logarithmic growth phase were inoculated in a 96-well plate, 20,000 to 30,000 cells per well, and the plate was pre-cultured for 24 hours in an incubator (at 37°C and 5% CO2). • ② The culture medium in the plate was replaced, and the compounds and the positive control with corresponding concentrations were added to the plated at a volume of 50 µl. • ③ The plate was incubated for 144 hours in an incubator, then 15 µl of CCK-8 solution was added to each well, and incubated in the incubator for another 1-4 hours. • ④ The absorbance at 450 nm was measured using a microplate reader.
(§4) • ① Calculating % Inhibition: [formula] • ② Calculating IC50 value of compound and plotting dose-response curve: The IC50 value was calculated by fitting the % Inhibition and the logarithm of compound concentration to a nonlinear regression (dose response-variable slope) by using GraphPad 6.0. • Y = Bottom + (Top - Bottom) / (1 + 10^((LogIC50 - X) * HillSlope)) • X: log of inhibitor concentration; Y: % Inhibition.
(§5) After calculating % Inhibition, a dose-response curve was plotted with the logarithm of the test compound concentration as the x-axis and the average cell viability as the y-axis, and the IC50 value was obtained by fitting.

U937 cells = assay: Antiproliferative activity, CCK-8 assay; assay type: cell-based; conditions: Homo sapiens, U-937; 144 hours incubation, CCK-8, absorbance at 450 nm
Method: as §1, §2, §3, §4, §5

RPMI-8226 cells = assay: Antiproliferative activity, CCK-8 assay; assay type: cell-based; conditions: Homo sapiens, 144 hours incubation, CCK-8, absorbance at 450 nm
Method: as §1, §2, §3, §4, §5

MV-4-11 cells = assay: Antiproliferative activity, CCK-8 assay; assay type: cell-based; conditions: Homo sapiens, MV4-11; 144 hours incubation, CCK-8, absorbance at 450 nm
Method: as §1, §2, §3, §4, §5

WSU-DLCL-2 cells = assay: Antiproliferative activity, CCK-8 assay; assay type: cell-based; conditions: Homo sapiens, WSUDLCL2; 144 hours incubation, CCK-8, absorbance at 450 nm
Method: as §1, §2, §3, §4, §5

[1] = test system: human multiple myeloma NCI-H929 xenograft tumors; assay: In vivo activity of combination therapy with bortezomib or tazemetostat against NCI-H929 transplanted tumor; parameters: species or system NOD/SCID mice; conditions: I-8 3 mg/kg QD; for Average volume (mm^3) (Day 10) / Tumor inhibition rate TGI (%) / Initial volume (mm^3): Bort 1 mg/kg BIW, Taze 100 mg/kg QD, combinations given as + Bort 3 mg/kg BIW / + Taze 3 mg/kg QD; for Initial volume (mm^3): baseline
Method: In this example, the human multiple myeloma NCI-H929 cell line was selected as the cell model to determine the inhibitory effects of compounds, bortezomib (Bort), and tazemetostat (Taze), as single drugs and in combination, on the growth of NOD/SCID mouse transplanted tumors of NCI-H929 tumor cells. The evaluation methods and results are described below.
(§6) Human multiple myeloma NCI-H929 cells were routinely cultured in RPMI1640 containing 10% fetal bovine serum at 37°C in a 5% CO2 incubator. After three passages in vitro, when the cells reached over 80% confluence and the required confluence rate, the cells were digested and harvested. After washing with PBS, the cells were counted and the cell concentration was adjusted to approximately 5 × 10^7 cells/mL. The cells were then placed in 4 mL centrifuge tubes on ice for later use.
(§7) Female NOD/SCID mice aged 4-5 weeks were selected and subcutaneously inoculated with NCI-H929 cells ectopically. The mice were held in a lateral position, the forelimb axilla was disinfected with 75% alcohol, and 100 µL of the cell suspension was injected subcutaneously into the axilla using a 1 mL syringe ([…]/100 µL).
After the tumors grew to 90-150 mm^3, the animals were randomly divided into groups, 8 mice in each group, and administered according to different administration methods as follows: • Model control group: Administered with the same volume of Vehicle (DMSO: 0.5% sodium carboxymethyl cellulose: distilled water = 1:1:8) daily by gavage; • Test group 1: administered with I-8 solution at 3 mg/kg (mouse body weight) daily by gavage; • Test group 2: administered with bortezomib (Bort) solution at 1 mg/kg (mouse body weight) twice weekly by gavage; • Test group 3: administered with tazemetostat solution at 100 mg/kg (mouse body weight) daily by gavage; • Test group 4: administered with I-8 at 3 mg/kg (mouse body weight) daily by gavage and bortezomib (Bort) solution at 1 mg/kg (mouse body weight) twice weekly by gavage; • Test group 5: administered with I-8 at 3 mg/kg (mouse body weight) daily by gavage and tazemetostat (Taze) solution at 100 mg/kg (mouse body weight) daily by gavage;
(§8) The route of administration was oral gavage, and the administration frequency was once daily, for 10 consecutive days. The first day of administration was defined as Day 1 of the experiment. Tumor volume changes in mice were measured and recorded every two days. Tumor volume was measured using a vernier caliper, in which the major axis (a) and minor axis (b) of the tumor were measured, and the tumor volume was calculated as tumor volume V (mm^3) = a x b^2/2. After the experiment, the mice were dissected and the tumor weight was measured. The data were entered and statistically analyzed using GraphPad Prism 6 software. The data are expressed as mean ± SEM (Standard Error of Mean), and one-way ANOVA was used. P ≤ 0.05 was considered statistically significant.

[2] = test system: human multiple myeloma NCI-H929 xenograft tumors; assay: In vivo antitumor activity against NCI-H929 transplanted tumors; parameters: species or system NOD/SCID mice; conditions: QD; for Tumor inhibition rate TGI (%) / Average volume (mm^3) (Day 10) / Initial volume (mm^3): oral gavage; for Tumor inhibition rate TGI (%): 10 consecutive days; for Initial volume (mm^3): baseline
Method: In this example, the human multiple myeloma NCI-H929 cell line was used as the cell model. The inhibitory effects of compounds on the growth of NOD/SCID mouse transplanted tumors of NCI-H929 tumor cells were determined. The evaluation methods and results are described below.
as §6, §7
After the tumors grew to 90-150 mm^3, the animals were randomly divided into groups, 8 mice in each group, and administered according to different administration methods as follows: • Model control group: Administered with the same volume of Vehicle (DMSO: 0.5% sodium carboxymethyl cellulose: distilled water = 1:1:8) daily by gavage; • Control drug group 1: administered with pomalidomide solution at 10 mg/kg (mouse body weight) daily by gavage; • Control drug group 2: administered with CC-220 solution at 3 mg/kg (mouse body weight) daily by gavage; • Control drug group 3: administered with CC-220 solution at 10 mg/kg (mouse body weight) daily by gavage; • Experimental compound group 4: administered with compound I-4 solution at 3 mg/kg (mouse body weight) daily by gavage; • Experimental compound group 5: administered with compound I-4 solution at 10 mg/kg (mouse body weight) daily by gavage; • Experimental compound group 6: administered with compound I-8 solution at 3 mg/kg (mouse body weight) daily by gavage; • Experimental compound group 7: administered with compound I-8 solution at 10 mg/kg (mouse body weight) daily by gavage;
as §8

[3] = test system: human multiple myeloma NCI-H929 xenograft tumors; assay: In vivo activity in combination with dexamethasone against NCI-H929 transplanted tumor; parameters: species or system NOD/SCID mice; conditions: each drug 3 mg/kg, QD, oral gavage, alone or combined
Method: In this example, human multiple myeloma NCI-H929 cell line was selected as the cell model to determine the inhibitory effects of compound and dexamethasone alone, as well as combination thereof on the growth of NOD/SCID mouse transplanted tumors of NCI-H929 tumor cells. The evaluation methods and results are described below.
as §6, §7
After the tumors grew to 90-150 mm^3, the animals were randomly divided into groups, 8 mice in each group, and administered according to different administration methods as follows: • Model control group: Administered with the same volume of Vehicle (DMSO: 0.5% sodium carboxymethyl cellulose: distilled water = 1:1:8) daily by gavage; • Test group 1: administered with dexamethasone (Dex) solution at 3 mg/kg (mouse body weight) daily by gavage; • Test group 2: administered with I-4 solution at 3 mg/kg (mouse body weight) daily by gavage; • Test group 3: administered with I-8 solution at 3 mg/kg (mouse body weight) daily by gavage; • Test group 4: administered with dexamethasone at 3 mg/kg (mouse body weight) and 1-4 solution at 3 mg/kg (mouse body weight) daily by gavage; • Test group 5: administered with dexamethasone at 3 mg/kg (mouse body weight) and I-8 solution at 3 mg/kg (mouse body weight) daily by gavage;
as §8

Compound: CNc1cccc2c1CN(C)N(C1CCC(=O)NC1=O)C2=O (centres unmarked) [I-2, 3-(3-methyl-5-(methylamino)-1-oxo-3,4-dihydrophthalazin-2(1H)-yl)piperidin-2,6-dione]
- IC50 (NCI-H929 cells): 0.311 µM
- IC50 (U937 cells): 1.33 µM
- IC50 (RPMI-8226 cells): 8.31 µM
- IC50 (MV-4-11 cells): > 10 µM
- IC50 (WSU-DLCL-2 cells): 1.06 µM

Compound: CCN(c1cc(-c2ccc(CN3CCOCC3)cc2)cc(C(=O)NCc2c(C)cc(C)[nH]c2=O)c1C)C1CCOCC1 [Taze, tazemetostat]
- Average volume (mm^3) (Day 10) [1]: 1558.0 mm^3
- Tumor inhibition rate TGI (%) [1]: 12.83%
- Initial volume (mm^3) [1]: 110.8 mm^3

Compound: CN1Cc2c(NCc3ccc(CN4CCN(C(=O)OC(C)(C)C)CC4)cc3)cccc2C(=O)N1C1CCC(=O)NC1=O (centres unmarked) [I-5, tert-butyl 4-(4-(((2-(2,6-dioxopiperidin-3-yl)-3-methyl-1-oxo-1,2,3,4-tetrahydrophthalazin-5-yl)amino)methyl)benzyl)piperazin-1-carboxylate]
- IC50 (NCI-H929 cells): 0.243 µM
- IC50 (U937 cells): 0.666 µM
- IC50 (RPMI-8226 cells): 0.641 µM
- IC50 (MV-4-11 cells): 0.174 µM
- IC50 (WSU-DLCL-2 cells): 0.108 µM

Compound: CN1Cc2c(NCc3ccc(CN4CCOCC4)cc3)cccc2C(=O)N1C1CCC(=O)NC1=O (centres unmarked) [I-1, 3-(3-methyl-5-((4-(morpholinomethyl)benzyl)amino)-1-oxo-3,4-dihydrophthalazin-2(1H)-yl)piperidin-2,6-dione]
- IC50 (U937 cells): 1.32 µM
- IC50 (MV-4-11 cells): 3.43 µM
- IC50 (WSU-DLCL-2 cells): 0.358 µM

Compound: CN1Cc2c(NCc3ccc(CN4CCN(c5ccccc5)CC4)cc3)cccc2C(=O)N1C1CCC(=O)NC1=O (centres unmarked) [I-3, 3-(3-methyl-1-oxo-5-((4-((4-phenylpiperazin-1-yl)methyl)benzyl)amino)-3,4-dihydrophthalazin-2(1H)-yl)piperidin-2,6-dione]
- IC50 (NCI-H929 cells): 1.3 µM
- IC50 (U937 cells): 1.11 µM
- IC50 (MV-4-11 cells): 1.39 µM
- IC50 (WSU-DLCL-2 cells): 0.279 µM

Compound: CN1Cc2c(NCc3ccc(CN4CCN(c5ccc(F)cc5)CC4)cc3)cccc2C(=O)N1C1CCC(=O)NC1=O (centres unmarked) [I-6]
- IC50 (NCI-H929 cells): 0.032 µM
- IC50 (U937 cells): 0.0522 µM
- IC50 (RPMI-8226 cells): 1.26 µM
- IC50 (MV-4-11 cells): 0.0311 µM
- IC50 (WSU-DLCL-2 cells): 0.048 µM

Compound: CN1Cc2c(N)cc(F)cc2C(=O)N1C1CCC(=O)NC1=O (centres unmarked) [I-12, 3-(5-amino-7-fluoro-3-methyl-1-oxo-3,4-dihydrophthalazin-2(1H)-yl)piperidin-2,6-dione]
- IC50 (NCI-H929 cells): > 10 µM
- IC50 (U937 cells): 2.3 µM
- IC50 (RPMI-8226 cells): 0.499 µM
- IC50 (MV-4-11 cells): 0.874 µM
- IC50 (WSU-DLCL-2 cells): 3.69 µM

Compound: O=C1CC[C@H](N2Cc3c(OCc4ccc(CN5CCOCC5)cc4)cccc3C2=O)C(=O)N1 [CC-220, reference compound]
- Tumor inhibition rate TGI (%) ([2]; 3 mg/kg): 77.98%
- Average volume (mm^3) (Day 10) ([2]; 3 mg/kg): 643.1 mm^3
- Initial volume (mm^3) ([2]; 3 mg/kg): 214.6 mm^3
- Tumor inhibition rate TGI (%) ([2]; 10 mg/kg): 100.09%
- Average volume (mm^3) (Day 10) ([2]; 10 mg/kg): 205.5 mm^3
- Initial volume (mm^3) ([2]; 10 mg/kg): 207.2 mm^3
- body weight ([2]; 10 mg/kg, during the experiment, Figure 2B): decreasing trend in body weight

Compound: CC(C)C[C@H](NC(=O)[C@H](Cc1ccccc1)NC(=O)c1cnccn1)B(O)O [Bort, bortezomib]
- Average volume (mm^3) (Day 10) [1]: 1249.7 mm^3
- Tumor inhibition rate TGI (%) [1]: 30.78%
- growth of NCI-H929 transplanted tumors (in words) ([1]; bortezomib 1 mg/kg BIW, tazemetostat 100 mg/kg QD, alone or combined): weaker tumor-inhibiting abilities
- Initial volume (mm^3) [1]: 100.6 mm^3

Compound: C[C@@H]1C[C@H]2[C@@H]3CCC4=CC(=O)C=C[C@]4(C)[C@@]3(F)[C@@H](O)C[C@]2(C)[C@@]1(O)C(=O)CO [Dex, dexamethasone, reference compound]
- Tumor inhibition rate TGI (%) ([3]; 10 consecutive days): 45.48%
- Average volume (mm^3) (Day 10) ([3]; Day 10): 1048.6 mm^3
- Initial volume (mm^3) ([3]; baseline): 185.7 mm^3
